Measurements from US5631002A, “Liniment for melanin inhibitors” (Shiseido Co., Ltd., priority 1994, dated 1997).

System: melanin pigment deposition in skin after sunlight exposure
Assay: Whitening effect testing (hypochromic effect on sun-exposed upper arm skin of testees)
Type: in vivo, human
Conditions: applied twice daily for 4 weeks after sunlight exposure, 8 persons per group
Experimental: (§1) 40 testees were exposed to summer sunlight for 4 hours (2 hours a day for 2 days) and the skin of an inner lateral part of their upper arm was used as the subject of the test. Beginning after 5 days from the day they were exposed to the sunlight, each sample was applied to this skin once in the morning and once in the afternoon for 4 weeks. The panel was divided into 5 groups with 8 persons in each group. Testing was conducted using the following formulations.
The hypochromic effect after the application was evaluated based on the criteria below.
Samples were prepared with the blend compositions described in the aforementioned test method, and the drugs listed in Table 2 were used to compare the whitening effect.
as §1, with “From” for “from”
Samples were prepared with the blend compositions described in the aforementioned test method, and the drugs listed in Table 4 were used to compare the whitening effect.
Samples were prepared with the blend compositions described in the aforementioned test method, and the drugs listed in Table 6 were used to compare the whitening effect.
as §1, with “groups 5” for “groups”
Samples were prepared with the blend compositions described in the aforementioned test Method, and the drugs listed in Table 8 were used to compare the whitening effect.

Oc1ccc(O)cc1 [Hydroquinone]
Effect (hypochromic effect) (Table 2, Blend Ratio 1.0 wt % in lotion): Δ (Δ: Very effective or effective on 30% to less than 50% testees) | Effect (hypochromic effect) (Table 4, Blend Ratio 1.0 wt % in lotion): Δ (Δ: Very effective or effective on 30% to less than 50% testees) | Effect (hypochromic effect) (Table 6, Blend Ratio 1.0 % in lotion): Δ (Δ: Very effective or effective on 30% to less than 50% testees) | Effect (hypochromic effect) (Table 8, Blend Ratio (5) 1.0 in lotion): Δ (Δ: Very effective or effective on 30% to less than 50% testees)
